Data as given in patent publication US20220168307A1, “TREATMENT OF SMA” (Hoffmann-La Roche Inc., priority 2019, published 2022).
“Also recorded” adds a separate entry of the source.

Columns and labels:
CYP2B6 [1] = target: T1, CYP2B6 (Homo sapiens, UniProt P20813); settings: risdiplam up to 12.5 μM
T1 sequence (P20813 1-491): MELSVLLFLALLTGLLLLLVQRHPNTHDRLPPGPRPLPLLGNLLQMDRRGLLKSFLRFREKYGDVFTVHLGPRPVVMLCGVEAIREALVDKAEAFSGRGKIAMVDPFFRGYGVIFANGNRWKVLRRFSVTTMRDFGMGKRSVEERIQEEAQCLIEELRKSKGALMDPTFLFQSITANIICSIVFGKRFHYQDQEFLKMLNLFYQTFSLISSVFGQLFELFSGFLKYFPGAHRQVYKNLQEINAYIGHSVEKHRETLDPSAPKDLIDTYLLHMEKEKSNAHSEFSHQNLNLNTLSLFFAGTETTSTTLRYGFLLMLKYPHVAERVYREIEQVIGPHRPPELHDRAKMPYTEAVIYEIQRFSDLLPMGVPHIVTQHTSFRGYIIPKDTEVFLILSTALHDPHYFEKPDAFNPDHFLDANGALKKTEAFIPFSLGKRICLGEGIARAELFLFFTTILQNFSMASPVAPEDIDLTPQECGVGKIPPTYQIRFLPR

CYP1A2 [2] = target: T2, CYP1A2 (Homo sapiens, UniProt P05177); test: in vitro; settings: pooled human liver microsomes, pH 7.4, probe phenacetin
T2 sequence (P05177 1-516): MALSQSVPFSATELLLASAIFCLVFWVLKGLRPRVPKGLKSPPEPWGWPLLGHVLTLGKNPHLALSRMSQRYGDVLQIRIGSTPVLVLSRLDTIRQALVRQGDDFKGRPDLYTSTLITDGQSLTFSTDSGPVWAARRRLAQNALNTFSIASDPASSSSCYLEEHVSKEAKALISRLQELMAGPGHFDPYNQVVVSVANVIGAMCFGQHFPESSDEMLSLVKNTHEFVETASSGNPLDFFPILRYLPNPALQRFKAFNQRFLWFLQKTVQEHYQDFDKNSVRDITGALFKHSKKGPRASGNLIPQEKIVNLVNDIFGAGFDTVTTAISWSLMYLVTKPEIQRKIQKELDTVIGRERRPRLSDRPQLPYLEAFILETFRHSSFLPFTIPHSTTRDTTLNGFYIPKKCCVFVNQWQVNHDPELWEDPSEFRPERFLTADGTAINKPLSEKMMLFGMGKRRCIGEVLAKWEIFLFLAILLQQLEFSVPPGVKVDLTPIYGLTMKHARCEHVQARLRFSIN

CYP2C19 = CYP2C19 (Homo sapiens, UniProt P33261); test: biochemical
CYP2B6 [3] = target: T1, CYP2B6; test: Direct inhibition of CYP2B6 (bupropion) in human liver microsomes
CYP1A2 [4] = target: T2, CYP1A2; test: Direct inhibition of CYP1A2 (phenacetin) in human liver microsomes
CYP2C8 = target: T3, CYP2C8 (Homo sapiens, UniProt P10632); test: Direct inhibition of CYP2C8 (amodiaquine) in human liver microsomes
T3 sequence (P10632 1-490): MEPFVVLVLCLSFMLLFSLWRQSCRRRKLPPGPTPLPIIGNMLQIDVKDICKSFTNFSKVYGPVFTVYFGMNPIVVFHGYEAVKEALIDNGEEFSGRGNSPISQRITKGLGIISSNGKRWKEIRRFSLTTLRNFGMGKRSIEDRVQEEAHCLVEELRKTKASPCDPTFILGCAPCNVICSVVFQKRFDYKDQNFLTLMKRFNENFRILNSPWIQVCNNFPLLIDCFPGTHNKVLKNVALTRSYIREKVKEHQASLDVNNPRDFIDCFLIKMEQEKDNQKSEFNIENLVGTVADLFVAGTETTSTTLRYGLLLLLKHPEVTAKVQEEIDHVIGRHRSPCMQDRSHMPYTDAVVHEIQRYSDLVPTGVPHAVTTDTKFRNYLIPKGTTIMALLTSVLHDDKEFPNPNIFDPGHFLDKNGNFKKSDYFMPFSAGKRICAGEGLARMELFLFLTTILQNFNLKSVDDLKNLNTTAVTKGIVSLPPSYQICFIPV

Sequence of CYP2C19 (P33261 whole entry): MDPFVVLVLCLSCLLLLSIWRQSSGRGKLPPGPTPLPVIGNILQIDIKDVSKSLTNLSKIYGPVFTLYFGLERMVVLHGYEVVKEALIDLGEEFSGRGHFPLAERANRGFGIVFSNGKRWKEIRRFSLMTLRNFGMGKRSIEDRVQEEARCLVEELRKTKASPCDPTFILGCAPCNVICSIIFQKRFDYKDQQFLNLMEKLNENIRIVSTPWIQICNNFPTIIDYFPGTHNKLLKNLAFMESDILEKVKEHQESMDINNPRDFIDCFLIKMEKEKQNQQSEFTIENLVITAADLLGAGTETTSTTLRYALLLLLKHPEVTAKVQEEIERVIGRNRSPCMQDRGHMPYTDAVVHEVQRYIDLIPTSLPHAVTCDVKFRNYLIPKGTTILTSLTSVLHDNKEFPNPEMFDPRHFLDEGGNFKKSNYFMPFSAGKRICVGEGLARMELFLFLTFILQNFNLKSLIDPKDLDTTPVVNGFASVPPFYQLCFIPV

SMILES: Cc1cn2nc(-c3cc(=O)n4cc(N5CCNC6(CC6)C5)ccc4n3)cc(C)c2n1 [risdiplam, 7-(4,7-diazaspiro[2.5]octan-7-yl)-2-(2,8-dimethylimidazo[1,2-b]pyridazin-6-yl)pyrido[1,2-a]pyrimidin-4-one]
- time-dependent inhibition (in words) (CYP2B6 [1]): did not show any significant reversible or time-dependent inhibition; also recorded: No significant reversible or time-dependent inhibition; also recorded: No significant time-dependent inhibition; also recorded: low potential to cause direct or time-dependent inhibition
- activity (CYP1A2 [2]): 94%
- IC50 (CYP2C19): > 12.5 µM
- % Control activity at (CYP2B6 [3]; direct inhibition, substrate Bupropion, concentration not given, duplicates): 94%
- reversible (direct) inhibition (in words) (CYP2B6 [3]; risdiplam up to 12.5 μM): did not show any significant reversible or time-dependent inhibition; also recorded: No significant reversible or time-dependent inhibition; also recorded: No significant reversible inhibition; also recorded: low potential to cause direct or time-dependent inhibition
- % Control activity at (CYP1A2 [4]; direct inhibition, substrate Phenacetin, concentration not given, duplicates): 101%
- reversible (direct) inhibition (in words) (CYP1A2 [4]; risdiplam up to 12.5 μM): did not show any significant reversible or time-dependent inhibition; also recorded: No significant reversible or time-dependent inhibition; also recorded: No significant reversible inhibition; also recorded: low potential to cause direct or time-dependent inhibition
- % Control activity at (CYP2C8; direct inhibition, substrate Amodiaquine, concentration not given, duplicates): 91%
- reversible (direct) inhibition (in words) (CYP2C8; risdiplam up to 12.5 μM): did not show any significant reversible or time-dependent inhibition; also recorded: No significant reversible or time-dependent inhibition; also recorded: No significant reversible inhibition; also recorded: low potential to cause direct or time-dependent inhibition
